The source of these data is patent publication US20160009693A1, “HERBICIDAL COMPOUNDS” (SYNGENTA LIMITED, priority 2013, published 2016).

Common to all, as to format: in vivo
What all share (conditions): applied at 1000 g/h, evaluated after 13 days

The subject of assay [1] is Ipomoea hederacea (IPOHE). As to the kind of experiment: Herbicidal glasshouse test, post-emergence, IPOHE.
Assay [2] concerns Setaria faberi (SETFA). As to the kind of experiment: Herbicidal glasshouse test, pre-emergence, SETFA.
Assay [3] concerns Ipomoea hederacea (IPOHE). The assay can be described thus: Herbicidal glasshouse test, pre-emergence, IPOHE.
The test system of assay [4] is Echinochloa crus-galli (ECHCG). As to the kind of experiment: Herbicidal glasshouse test, pre-emergence, ECHCG. Summed up:
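In this pre-emergence glasshouse test, ECHCG seeds sown in pots of standard soil were sprayed one day after sowing with the test material in acetone/water (50:50) containing 0.5% Tween 20. Plants were kept at 24/16° C., 14 hours light, 65% humidity, and watered twice daily. Percentage damage was rated after 13 days on a 1–5 scale.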

The subject of assay [5] is Amaranthus retoflexus (AMARE). As to the kind of experiment: Herbicidal glasshouse test, post-emergence, AMARE. In a few lines:
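This post-emergence glasshouse test used AMARE plants raised in standard soil for 8 days under controlled conditions (24/16° C. day/night, 14 hours light, 65% humidity). Foliage was sprayed with formulated compound in acetone/water (50:50) containing 0.5% Tween 20. Plants were then watered twice daily, and after 13 days percentage damage was rated on a five point scale.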

Assay [6] relates to Alopecurus myosuroides (ALOMY). As to the kind of experiment: Herbicidal glasshouse test, pre-emergence, ALOMY.
The subject of assay [7] is Setaria faberi (SETFA). The assay can be described thus: Herbicidal glasshouse test, post-emergence, SETFA. Summed up: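 This post-emergence glasshouse herbicide test used potted Setaria faberi. Plants were cultivated for 8 days under controlled conditions (24/16° C. day/night, 14 hours light, 65% humidity) and then treated with an aqueous spray made from an acetone/water (50:50) solution containing 0.5% Tween 20. After 13 days of further growth with twice-daily watering, damage was rated on a five point scale (5=80-100%; 1=0-19%).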

The test system of assay [8] is Echinochloa crus-galli (ECHCG). As to the kind of experiment: Herbicidal glasshouse test, post-emergence, ECHCG. Summed up: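 In this post-emergence glasshouse test, barnyard grass (ECHCG) was cultivated for 8 days under controlled conditions (24/16° C. day/night, 14 hours light, 65% humidity). It was then sprayed with an aqueous solution of the technical compound in acetone / water (50:50) with 0.5% Tween 20. Plants were kept under the same conditions and watered twice daily. After 13 days, percentage damage was rated on a five point scale (5=80-100%; 1=0-19%).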

In assay [9] the test system is Solanum nigrum (SOLNI). The assay can be described thus: Herbicidal glasshouse test, post-emergence, SOLNI.
Assay [10] relates to Amaranthus retoflexus (AMARE). As to the kind of experiment: Herbicidal glasshouse test, pre-emergence, AMARE. In a few lines: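 This pre-emergence glasshouse herbicide test used Amaranthus retoflexus sown in standard soil. After one day of cultivation, an aqueous spray made from the technical ingredient in 50:50 acetone/water with 0.5% Tween 20 was applied. Pots stayed at 24/16° C., 14 hours light, 65% humidity, with twice-daily watering. Damage was rated on a five point scale (1=0-19% up to 5=80-100%).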

Assay [11] has as its system Solanum nigrum (SOLNI). The assay can be described thus: Herbicidal glasshouse test, pre-emergence, SOLNI. In a few lines: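 This pre-emergence glasshouse herbicide test used Solanum nigrum sown in standard soil. One day after sowing, pots were sprayed with the compound in acetone/water (50:50) with 0.5% Tween 20. They were then grown at 24/16° C., with 14 hours light and 65% humidity, and watered twice daily. Percentage damage was scored after 13 days on a five point scale, where 5=80-100% and 1=0-19%.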

Assay [12] concerns Alopecurus myosuroides (ALOMY). As to the kind of experiment: Herbicidal glasshouse test, post-emergence, ALOMY.

As for `CCCCn1c(=O)c(C(=O)Nc2ncnn2C)nn(C)c1=O` [Compound 5.003], in assay [1], the “POST Application IPOHE, percentage damage (five point scale)” value was 4 (4=60-79%). The “PRE Application SETFA, percentage damage (five point scale)” value (from here on “PRE Application SETFA, percentage damage”) with Setaria faberi (SETFA) [2] is 4 (4=60-79%). Also, the “PRE Application IPOHE, percentage damage (five point scale)” value (shortened to “PRE Application IPOHE, percentage damage”) in assay [3] is reported as 4 (4=60-79%). For the same molecule, in assay [4], the “PRE Application ECHCG, percentage damage (five point scale)” value (“PRE Application ECHCG, percentage damage” below) was 1 (1=0-19%). In [5], the “POST Application AMARE, percentage damage (five point scale)” value is listed as 5 (5=80-100%). In addition, the “PRE Application ALOMY, percentage damage (five point scale)” value (from here on “PRE Application ALOMY, percentage damage”) in assay [6] was 1 (1=0-19%). In addition, the “POST Application SETFA, percentage damage (five point scale)” value in the assay with Setaria faberi (SETFA) [7] is on record as 4 (4=60-79%). Also, the “POST Application ECHCG, percentage damage (five point scale)” value in assay [8] is 4 (4=60-79%). In addition, the “POST Application SOLNI, percentage damage (five point scale)” value in the assay with Solanum nigrum (SOLNI) [9] was 5 (5=80-100%). For the same molecule, the “PRE Application AMARE, percentage damage (five point scale)” value (shortened to “PRE Application AMARE, percentage damage”) in assay [10] was 5 (5=80-100%). Also, in the assay on Solanum nigrum (SOLNI) [11], the “PRE Application SOLNI, percentage damage (five point scale)” value (“PRE Application SOLNI, percentage damage” below) is 5 (5=80-100%). In addition, the “POST Application ALOMY, percentage damage (five point scale)” value in [12] is given as 3 (3=40-59%).
`Cn1cnnc1NC(=O)c1nn(C)c(=O)n(-c2ccccc2)c1=O` [Compound 6.001]: in [1], the “POST Application IPOHE, percentage damage (five point scale)” value is reported as 5 (5=80-100%). Moreover, in the assay with Setaria faberi (SETFA) [2], the “PRE Application SETFA, percentage damage” value is recorded as 5 (5=80-100%). Further, the “PRE Application IPOHE, percentage damage” value in [3] is 1 (1=0-19%). Moreover, the “PRE Application ECHCG, percentage damage” value in assay [4] is listed as 1 (1=0-19%). For the same molecule, the “POST Application AMARE, percentage damage (five point scale)” value in assay [5] is 5 (5=80-100%). The “PRE Application ALOMY, percentage damage” value in assay [6] is on record as 1 (1=0-19%). Besides, the “POST Application SETFA, percentage damage (five point scale)” value in the assay with Setaria faberi (SETFA) [7] was 3 (3=40-59%). Moreover, in [8], the “POST Application ECHCG, percentage damage (five point scale)” value is 5 (5=80-100%). Besides, in the assay on Solanum nigrum (SOLNI) [9], the “POST Application SOLNI, percentage damage (five point scale)” value was 5 (5=80-100%). Moreover, in assay [10], the “PRE Application AMARE, percentage damage” value is given as 5 (5=80-100%). Also, the “PRE Application SOLNI, percentage damage” value with Solanum nigrum (SOLNI) [11] is listed as 5 (5=80-100%). For the same molecule, the “POST Application ALOMY, percentage damage (five point scale)” value in assay [12] is 3 (3=40-59%).
As to `Cn1cnnc1NC(=O)c1nn(C)c(=O)n(-c2cccc(F)c2F)c1=O` [Compound 6.002], in assay [1], the “POST Application IPOHE, percentage damage (five point scale)” value is recorded as 5 (5=80-100%). Further, the “PRE Application SETFA, percentage damage” value with Setaria faberi (SETFA) [2] is 2 (2=20-39%). Moreover, in assay [3], the “PRE Application IPOHE, percentage damage” value is 5 (5=80-100%). Besides, the “PRE Application ECHCG, percentage damage” value in [4] is on record as 2 (2=20-39%). In [5], the “POST Application AMARE, percentage damage (five point scale)” value is on record as 5 (5=80-100%). Also, in assay [6], the “PRE Application ALOMY, percentage damage” value is on record as 2 (2=20-39%). Further, in the assay with Setaria faberi (SETFA) [7], the “POST Application SETFA, percentage damage (five point scale)” value is 4 (4=60-79%). In [8], the “POST Application ECHCG, percentage damage (five point scale)” value is recorded as 4 (4=60-79%). Also, in the assay on Solanum nigrum (SOLNI) [9], the “POST Application SOLNI, percentage damage (five point scale)” value was 5 (5=80-100%). The “PRE Application AMARE, percentage damage” value in [10] is recorded as 5 (5=80-100%). Also, the “PRE Application SOLNI, percentage damage” value in the assay with Solanum nigrum (SOLNI) [11] is 5 (5=80-100%). Moreover, in assay [12], the “POST Application ALOMY, percentage damage (five point scale)” value is 4 (4=60-79%).
For the molecule `CCCCn1c(=O)c(C(=O)Nc2nncn2C)nn(C)c1=O` [Compound 6.003], the “POST Application IPOHE, percentage damage (five point scale)” value in [1] is reported as 5 (5=80-100%). The “PRE Application SETFA, percentage damage” value in the assay with Setaria faberi (SETFA) [2] is recorded as 5 (5=80-100%). Further, the “PRE Application IPOHE, percentage damage” value in assay [3] is 5 (5=80-100%). Also, in [4], the “PRE Application ECHCG, percentage damage” value is 4 (4=60-79%). In addition, the “POST Application AMARE, percentage damage (five point scale)” value in assay [5] is given as 5 (5=80-100%). Further, the “PRE Application ALOMY, percentage damage” value in assay [6] is reported as 1 (1=0-19%). Besides, in the assay with Setaria faberi (SETFA) [7], the “POST Application SETFA, percentage damage (five point scale)” value is given as 2 (2=20-39%). For the same molecule, in [8], the “POST Application ECHCG, percentage damage (five point scale)” value is listed as 1 (1=0-19%). In addition, the “POST Application SOLNI, percentage damage (five point scale)” value in the assay on Solanum nigrum (SOLNI) [9] is 4 (4=60-79%). In addition, the “PRE Application AMARE, percentage damage” value in assay [10] was 5 (5=80-100%). Besides, the “PRE Application SOLNI, percentage damage” value in the assay on Solanum nigrum (SOLNI) [11] is 5 (5=80-100%). The “POST Application ALOMY, percentage damage (five point scale)” value in assay [12] was 3 (3=40-59%).
